Tests used:
[1] = molecular target: T1, NURR-1/RXRα (Homo sapiens, UniProt P19793); test: Transactivation test, NURR-1-Gal4/RXRα, luciferase reporter in Cos-7 cells; type: cell-based; details: for Emax: COS-7, induction level relative to reference XCT0135908 at 2×10^−5 M (=100%), read-out: hNurr1_RXRaFL Emax (%); for EC50: Cos-7 cells, NURR-1-Gal4/RXRα, luciferase reporter, read-out: hNurr1_RXRaFL EC50
T1 construct: expressed in transfected cells; host or cells: Cos-7 cells

[2] = molecular target: T2, NURR-1/RXRγ (Homo sapiens, UniProt P48443); test: Transactivation test, NURR-1-Gal4/RXRγ, luciferase reporter in Cos-7 cells; type: cell-based; details: for Emax: COS-7, induction level relative to reference XCT0135908 at 2×10^−5 M (=100%), read-out: hNurr1_RXRgFL Emax (%); for EC50: Cos-7 cells, NURR-1-Gal4/RXRγ, luciferase reporter, read-out: hNurr1_RXRgFL EC50
T2 construct: expressed in transfected cells; host or cells: Cos-7 cells
T2 sequence (P48443 whole entry, the tested form may be a part): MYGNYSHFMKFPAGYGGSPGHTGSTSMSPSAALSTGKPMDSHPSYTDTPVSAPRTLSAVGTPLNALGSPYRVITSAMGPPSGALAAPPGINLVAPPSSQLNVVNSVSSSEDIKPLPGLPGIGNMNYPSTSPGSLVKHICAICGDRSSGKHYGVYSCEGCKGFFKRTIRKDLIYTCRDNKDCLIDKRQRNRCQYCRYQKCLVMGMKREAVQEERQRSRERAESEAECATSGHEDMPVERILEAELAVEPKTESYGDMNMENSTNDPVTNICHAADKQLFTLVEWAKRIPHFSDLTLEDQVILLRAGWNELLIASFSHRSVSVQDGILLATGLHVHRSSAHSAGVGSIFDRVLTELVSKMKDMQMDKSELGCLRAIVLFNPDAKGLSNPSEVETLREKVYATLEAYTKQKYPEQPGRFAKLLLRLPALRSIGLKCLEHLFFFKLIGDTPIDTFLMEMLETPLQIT
T2 sequence (P43354 whole entry partner, the tested form may be a part): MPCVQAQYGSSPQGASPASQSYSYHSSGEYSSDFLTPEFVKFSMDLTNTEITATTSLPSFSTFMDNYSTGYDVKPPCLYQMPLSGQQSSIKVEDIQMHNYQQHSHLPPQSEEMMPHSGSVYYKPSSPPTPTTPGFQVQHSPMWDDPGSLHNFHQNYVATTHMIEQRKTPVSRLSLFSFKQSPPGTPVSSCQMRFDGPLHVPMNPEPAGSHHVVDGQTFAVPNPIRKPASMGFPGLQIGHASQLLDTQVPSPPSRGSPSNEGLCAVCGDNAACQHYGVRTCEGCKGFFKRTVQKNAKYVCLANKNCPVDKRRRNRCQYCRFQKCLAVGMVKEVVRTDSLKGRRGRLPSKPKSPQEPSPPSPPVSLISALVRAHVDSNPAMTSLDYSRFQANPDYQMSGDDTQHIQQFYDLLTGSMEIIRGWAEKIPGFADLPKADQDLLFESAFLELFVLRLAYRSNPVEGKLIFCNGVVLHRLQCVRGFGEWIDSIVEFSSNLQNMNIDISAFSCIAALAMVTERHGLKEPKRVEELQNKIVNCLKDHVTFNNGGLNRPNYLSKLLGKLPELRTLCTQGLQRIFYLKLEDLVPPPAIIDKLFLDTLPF
T2 sequence (P04386 1-147 partner limits assumed): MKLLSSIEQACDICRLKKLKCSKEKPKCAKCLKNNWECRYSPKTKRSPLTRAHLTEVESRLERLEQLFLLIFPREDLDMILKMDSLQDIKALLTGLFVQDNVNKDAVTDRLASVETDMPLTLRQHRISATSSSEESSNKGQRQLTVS

T1 sequence (P19793 whole entry, the tested form may be a part): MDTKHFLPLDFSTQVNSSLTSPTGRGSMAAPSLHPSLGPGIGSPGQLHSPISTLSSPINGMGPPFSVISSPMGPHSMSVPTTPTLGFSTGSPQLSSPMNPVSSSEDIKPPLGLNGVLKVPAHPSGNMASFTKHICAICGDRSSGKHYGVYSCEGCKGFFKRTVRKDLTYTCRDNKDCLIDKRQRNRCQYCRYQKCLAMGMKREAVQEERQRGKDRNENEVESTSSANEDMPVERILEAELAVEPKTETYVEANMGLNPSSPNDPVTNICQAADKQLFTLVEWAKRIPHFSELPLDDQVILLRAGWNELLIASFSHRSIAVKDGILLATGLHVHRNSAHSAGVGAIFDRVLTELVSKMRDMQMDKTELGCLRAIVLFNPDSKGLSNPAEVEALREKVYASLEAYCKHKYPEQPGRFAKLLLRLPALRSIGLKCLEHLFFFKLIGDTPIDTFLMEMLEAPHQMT
T1 sequence (P43354 whole entry partner, the tested form may be a part): as the sequence (P43354 whole entry partner, the tested form may be a part) above
T1 sequence (P04386 1-147 partner limits assumed): as the sequence (P04386 1-147 partner limits assumed) above

| Structure (SMILES) | Emax [1] [%] | EC50 [1] [nM] | Emax [2] [%] | EC50 [2] [nM] |
| --- | --- | --- | --- | --- |
| CCCOc1ccc(C(F)(F)F)cc1-c1cccc(N2CC(C(=O)O)C2)c1 [Example 88, 1-[3-[2-propoxy-5-(trifluromethyl)phenyl]phenyl]azetidine-3-carboxylic acid] | 69 | 60 | 80 | 73 |
| CCCCOc1ccc(C(F)(F)F)cc1-c1cccc(N2CC(C(=O)O)C2)c1 [Example 89] | 61 | 23 | 64 | 21 |
| O=C(O)C1CN(c2cccc(-c3cc(C(F)(F)F)ccc3OCC3CCOC3)c2)C1 (centres unmarked) [Example 91] | 43 | 278 | 77 | 282 |
| O=C(O)C1CN(c2cccc(-c3cc(C(F)(F)F)ccc3OCCc3ccccc3)c2)C1 [Example 93, 1-[3-[2-phenyethyloxy-5-(trifluromethyl)phenyl]phenyl]azetidine-3-carboxylic acid] | 58 | 33 | 42 | 31 |
| O=C(O)C1CN(c2cccc(-c3cc(C(F)(F)F)ccc3OCc3ccccc3Cl)c2)C1 [Example 97, 1-[3-[2-[(2-chlorophenyl)methyoxy]-5-(trifluoromethyl)phenyl]phenyl]azetidine-3-carboxylic acid] | 49 | 12 | 38 | 13 |
| CCC(CC)COc1ccc(C(F)(F)F)cc1-c1cccc(N2CC(C(=O)O)C2)c1 [Example 103, 1-[3-[2-(2-ethylbutoxy)-5-(trifluoromethyl)phenyl]phenyl]azetidine-3-carboxylic acid] | 62 | 16 | 58 | 17 |
| CCC(C)Oc1ccc(C(F)(F)F)cc1-c1cccc(N2CC(C(=O)O)C2)c1 (centres unmarked) [Example 105, 1-[3-[2-sec-butoxy-5-(trifluoromethyl)phenyl]phenyl]azetidine-3-carboxylic acid] | 56 | 10 | 55 | 19 |
| Cc1cc(C)cc(COc2ccc(C(F)(F)F)cc2-c2cccc(N3CC(C(=O)O)C3)c2)c1 [Example 106, 1-[3-[2-[(3,5-dimethylphenyl)methoxy]-5-(trifluoromethyl)phenyl]phenyl]azetidine-3-carboxylic acid] | 40 | 13 | 36 | 13 |
| Cn1ccc(COc2ccc(C(F)(F)F)cc2-c2cccc(N3CC(C(=O)O)C3)c2)n1 [Example 108, 1-[3-[2-[(1-methylpyrazol-3-yl)methoxy]-5-(trifluoromethyl)phenyl]phenyl]azetidine-3-carboxylic acid] | 53 | 82 | 54 | 112 |
| O=C(O)C1CN(c2cccc(-c3cc(C(F)(F)F)ccc3OCc3ccsc3)c2)C1 [Example 111, 1-[3-[2-(3-thienylmethoxy)-5-(trifluoromethyl)phenyl]phenyl]azetidine-3-carboxylic acid] | 94 | 8 | 94 | 15 |
| O=C(O)C1CN(c2cccc(-n3cc(CC4CCOCC4)c4cc(C(F)(F)F)ccc43)c2)C1 [Example 129, 1-[3-[3-(tetrahydropyran-4-ylmethyl)-5-(trifluoromethyl)indol-1-yl]phenyl]azetidine-3-carboxylic acid] | 90 | 7 | 88 | 10 |
| O=C(O)C1CN(c2cccc(N3CC4(CCOC4)c4cc(C(F)(F)F)ccc43)c2)C1 (centres unmarked) [Example 140, 1-[3-[5-(trifluoromethyl)spiro[indoline-3,3′-tetrahydrofuran]-1-yl]phenyl]azetidine-3-carboxylic acid] | 108 | 40 | 97 | 30 |
| Cc1cn(-c2cccc(N3CC(C(=O)NS(=O)(=O)C(F)(F)F)C3)c2)c2ccc(C(F)(F)F)cc12 [Example 151, 1-[3-[3-methyl-5-(trifluoromethyl)indol-1-yl]phenyl]-N-(trifluoromethylsulfonyl)azetidine-3-carboxamide] | 95 | 4 | 73 | 7 |

Further compounds by falling EC50 [1], results first:

| Emax [1] [%] | EC50 [1] [nM] | Emax [2] [%] | EC50 [2] [nM] | Structure (SMILES) |
| --- | --- | --- | --- | --- |
| 82 | 995 | 85 | 2090 | CNS(=O)(=O)c1cn(-c2cccc(N3CC(C(=O)O)C3)c2)c2ccc(C(F)(F)F)cc12 [Example 137] |
| 87 | 181 | 111 | 455 | Cc1cn(-c2cccc(N3CC(C(=O)NCCN(C)C)C3)c2)c2ccc(C(F)(F)F)cc12 [Example 153, N-(2-dimethylaminoethyl)-1-[3-[3-methyl-5-(trifluoromethyl)indol-1-yl]phenyl]azetidine-3-carboxamide] |
| 97 | 159 | 94 | 125 | COCCOc1ccc(C(F)(F)F)cc1-c1cccc(N2CC(C(=O)O)C2)c1 [Example 102, 1-[3-[2-(2-methoxyethoxy)-5-(trifluoromethyl)phenyl]phenyl]azetidine-3-carboxylic acid] |
| 55 | 118 | 41 | 60 | CC(C)C(Oc1ccc(C(F)(F)F)cc1-c1cccc(N2CC(C(=O)O)C2)c1)C(C)C [Example 101, 1-[3-[2-(1-isopropyl-2-methlypropoxy)-5-(trifluoromethyl)phenyl]phenyl]azetidine-3-carboxylic acid] |
| 59 | 29 | 36 | 93 | COc1cccc(COc2ccc(C(F)(F)F)cc2-c2cccc(N3CC(C(=O)O)C3)c2)c1 [Example 92, 1-[3-[2-[(3-methoxyphenyl)methoxy]-5-(trifluoromethyl)phenyl]phenyl]azetidine-3-carboxylic acid] |
| 97 | 28 | 105 | 24 | O=C(O)C1CN(c2cccc(N3c4ccc(C(F)(F)F)cc4C4CCCCC43)c2)C1 (centres unmarked) [Example 144, 1-[3-[6-(trifluoromethyl)-1,2,3,4,4a,9a-hexahydrocarbazol-9-yl]phenyl]azetidine-3-carboxylic acid] |
| 48 | 19 | 48 | 30 | O=C(O)C1CN(c2cccc(-c3cc(C(F)(F)F)ccc3OCc3cccc(Cl)c3)c2)C1 [Example 107, 1-[3-[2-[(3-chlorophenyl)methyoxy]-5-(trifluoromethyl)-phenyl]phenyl]azetidine-3-carboxylic acid] |
| 56 | 17 | 51 | 19 | O=C(O)C1CN(c2cccc(-c3cc(C(F)(F)F)ccc3OCc3ccc(F)cc3)c2)C1 [Example 99, 1-[3-[2-[(4-fluorophenyl),ethoxy]-5-(trifluroomethyl)phenyl]phenyl]azetidine-3-carboxylic acid] |
| 122 | 12 | 133 | 13 | O=C(O)C1CN(c2cccc(N3C(=O)C4(CCC4)Oc4cc(C(F)(F)F)ccc43)c2)C1 [Example 121, 1-[3-[3-oxo-7-(trifluromethyl)spiro[3H1,4-benzoxazine-2,1′-cyclobutane]-4yl]phenyl]azetidine-3-carboxylic acid] |
| 116 | 10 | 116 | 10 | Cc1cn(-c2cccc(N3CC(C(=O)NC(C)C)C3)c2)c2ccc(C(F)(F)F)cc12 [Example 152, N-isopropyl-1-[3-[3-methyl-5-(trifluoromethyl)indol-1-yl]phenyl]azetidine-3-carboxamide] |
| 99 | 8 | 97 | 19 | O=C(O)C1CN(c2cccc(-n3c(=O)n(CC4CCCC4)c4cc(C(F)(F)F)ccc43)c2)C1 [Example 149, 1-[3-[3-(cyclopetnylmethyl)-2-oxo-5-(trifluoromethyl)benzimidazol-1-yl]phenyl]azetidine-3-carboxylic acid] |
| 117 | 7 | 96 | 10 | O=C(O)C1CN(c2cccc(-c3cc(C(F)(F)F)ccc3OCc3cccs3)c2)C1 [Example 96] |
| 115 | 7 | 122 | 10 | O=C(O)C1CN(c2cccc(N3CC4(CCCC4)c4cc(C(F)(F)F)ccc43)c2)C1 [Example 139, 1-[3-[5′-(trifluoromethyl)spiro[cyclopentane-1,3′-indoline]-1′-yl]phenyl]azetidine-3-carboxylic acid] |
| 67 | 6 | 57 | 7 | O=C(O)C1CN(c2cccc(-c3cc(C(F)(F)F)ccc3OCc3ccccc3)c2)C1 [Example 90, 1-[3-[2-benzyloxy-5-(trifluoromethyl)phenyl]phenyl]azetidine-3-carboxylic acid] |
| 117 | 4 | 113 | 3 | O=C(O)C1CN(c2cccc(-n3cc(CC4CCCC4)c4cc(C(F)(F)F)ccc43)c2)C1 [Example 127, 1-[3-[3-(cyclopentylmethyl)-5-(trifluoromethyl)indol-1-yl]phenyl]azetidine-3-carboxylic acid] |
| 125 | 3 | 136 | 9 | CC1(C)CN(c2cccc(N3CC(C(=O)O)C3)c2)c2ccc(C(F)(F)F)cc2O1 [Example 112, 1-[3-[2,2-dimethyl-7-(trifluoromethyl)-3H-1,4,benzoxazin-4-yl]phenyl]azetidine-3-carboxylic acid] |

Source: patent US20170066717A1, “NEW PHENYLAZETIDINECARBOXYLATE OR -CARBOXAMIDE COMPOUNDS” (INVENTIVA, priority 2014, published 2017)
